Results taken from publication PMC7406636, “In vivo and in silico characterization of apocynin in reducing organ oxidative stress: A pharmacokinetic and pharmacodynamic study” (Pharmacology Research & Perspectives, 2020).
Where two headings read alike, the source gives them in different places.

Assays:
[1] = PK simulation and model analysis using Phoenix WinNonlin 8.1 (non-compartmental and compartmental); type: in vivo; conditions: CD1, mouse, plasma; for AUC / clearance / Vd: iv, 5 mg/kg
Procedure: PK parameters simulation was performed using the Phoenix WinNonlin 8.1 software (Certara.com). […] Data collected from sampling time 1‐360 minutes after iv injection were then pooled (n = 3) and tested against various compartmental models for a best fit using Phoenix WinNonlin 8.1 software. Parameters included the Akaike's information criterion (AIC), Bayesian information criteria (BIC) and corrected AIC (AICc) calculated using the equation: AICc = AIC +2 × nParm (nParm + 1)/(nObs − nParm − 1). ^21

[2] = tested on: O2·‐ production in tissue homogenates; assay: O2·- production in tissue homogenates by lucigenin-chemiluminescence after iv injection (PD profile); type: in vivo, mouse; conditions: iv 5 mg/kg
Procedure: All studies were performed in accordance with the protocols approved by the Home Office under the Animals (Scientific Procedures) Act 1986, UK. For the PKPD study, male CD1 mice (Charles River Ltd) at 12 weeks of age with a body weight range between 25 and 30 g were used for the study. Mice were fasted 12 hours before bolus iv injection of apocynin at 5 mg/kg body weight (dosing volume 5 mL/kg) via a lateral tail vein. Control mice were injected with vehicle (solvent of apocynin) at each time points. Four mice/per time points were sacrificed at 0, 1, 2.5, 5, 15, 30, 60 minutes and then at 3, 6, 12, and 24 hours after iv injection of apocynin. Blood samples were collected and centrifuged at 2000 g, 4°C for 10 minutes for plasma collection. Urine samples were collected from bladders. Tissues were harvested for further experiments. ROS production was measured using tissue homogenates by three complementary techniques: lucigenin (5 µmol/L)‐chemiluminescence (Molecular Devices); DHE (2 µmol/L) fluorescence on brain tissue sections, and brain tissue lipid peroxidation by malondialdehyde (MDA) assay as described previously. ^5 The specificity of detection of O2·‐ was confirmed by adding tiron (10 mmol/L), a non‐enzymatic O2·‐ scavenger. The enzymatic sources of O2·‐ production were identified using inhibitors targeting nitric oxide synthase (L‐N^G‐Nitro arginine methyl ester, L‐NAME, 100 μmol/L), the mitochondrial complex‐1 enzymes (rotenone, 50 μmol/L), xanthine oxidase (oxypurinol, 250 μmol/L), flavo‐proteins (diphenyleneiodonium, DPI, 20 μmol/L), or superoxide dismutase (SOD) (200 U/mL). The DHE fluorescence was captured using a Nikon fluorescence microscope (Eclipse Ti2‐E). The fluorescence intensity was quantified from at least three random images per section with three sections/per sample.

[3] = tested on: ROS production on brain sections; assay: In situ ROS production by DHE fluorescence on brain sections after iv injection; type: in vivo, mouse; conditions: brain sections harvested at 15 minutes after iv injection
Procedure: ROS production was measured using tissue homogenates by three complementary techniques: lucigenin (5 µmol/L)‐chemiluminescence (Molecular Devices); DHE (2 µmol/L) fluorescence on brain tissue sections, and brain tissue lipid peroxidation by malondialdehyde (MDA) assay as described previously. ^5 The specificity of detection of O2·‐ was confirmed by adding tiron (10 mmol/L), a non‐enzymatic O2·‐ scavenger. The enzymatic sources of O2·‐ production were identified using inhibitors targeting nitric oxide synthase (L‐N^G‐Nitro arginine methyl ester, L‐NAME, 100 μmol/L), the mitochondrial complex‐1 enzymes (rotenone, 50 μmol/L), xanthine oxidase (oxypurinol, 250 μmol/L), flavo‐proteins (diphenyleneiodonium, DPI, 20 μmol/L), or superoxide dismutase (SOD) (200 U/mL). The DHE fluorescence was captured using a Nikon fluorescence microscope (Eclipse Ti2‐E). The fluorescence intensity was quantified from at least three random images per section with three sections/per sample.

[4] = design: method as in PMID 23455672; conditions: cited from earlier work

k el ([1]; NCA, iv 5 mg/kg, n = 3, read-out: Kel (elimination rate constant) (converted)): 0.00379 s⁻¹
half-life ([1]; NCA, iv 5 mg/kg, n = 3, read-out: t 1/2 (terminal half-life, plasma) (converted)): 3 min
AUC ([1]; male, 1-CA (one compartmental analysis), 0-6 h, read-out: AUC0‐∞): 681 ng·h/mL
clearance ([1]; male, 1-CA, 0-6 h, read-out: tvCL1 (typical value of compartmental clearance) (converted)): 92.4 mL/min
Vd ([1]; male, 1-CA, 0-6 h, read-out: tvV1 (typical value of compartmental volume of distribution)): 0.531 L
AUC ([1]; male, 2-CA (two compartmental analysis), 0-6 h, read-out: AUC0‐∞): 711 ng·h/mL
clearance ([1]; male, 2-CA, 0-6 h, read-out: tvCL1 (typical value of compartmental clearance) (converted)): 92.3 mL/min
Vd ([1]; male, 2-CA, 0-6 h, read-out: tvV1 (typical value of compartmental volume of distribution)): 0.531 L
AUC ([1]; male, 3-CA (three compartmental analysis), 0-6 h, read-out: AUC0‐∞): 711 ng·h/mL
clearance ([1]; male, 3-CA, 0-6 h, read-out: tvCL1 (typical value of compartmental clearance) (converted)): 92 mL/min
Vd ([1]; male, 3-CA, 0-6 h, read-out: tvV1 (typical value of compartmental volume of distribution)): 0.531 L
AUC ([1]; male, NCA, iv 5 mg/kg, n = 3, read-out: AUC0‐30min): 643 ng·h/mL
AUC ([1]; male, NCA, iv 5 mg/kg, n = 3, read-out: AUC0‐∞): 644 ng·h/mL
clearance ([1]; male, NCA, iv 5 mg/kg, n = 3, read-out: CL (clearance) (converted)): 129 mL/min/kg
Vd ([1]; male, NCA, iv 5 mg/kg, n = 3, read-out: V d (central volume of distribution)): 0.569 L/kg
clearance ([1]; male, NCA, iv 5 mg/kg, read-out: CL (systemic clearance) (converted)): 129 mL/min/kg
C0 ([1]; male, NCA, 0-30 min, iv 5 mg/kg, n = 3, read-out: C 0 (extrapolated plasma concentration at time 0)): 7360 ng/mL
Cmax ([1]; male, NCA, 0-30 min, iv 5 mg/kg, n = 3, read-out: C max (maximum plasma concentration)): 5490 ng/mL
SMILES: COc1cc(C(C)=O)ccc1O [Apocynin, 4‐hydroxy‐3‐methoxyacetophenone]
inhibition at 5 mg/kg ([2]; Mus musculus, 1 min, brain homogenates, starting at 1 minute): 60.4 ± 25.4%
duration of inhibition of brain O2·- production ([2]; brain homogenates): up to 60 minutes
start of inhibition of brain O2·- production ([2]; brain homogenates): 1 min
time at which inhibition of brain O2·- production became significant ([2]; brain homogenates): 2.5 min
time at which inhibition of brain O2·- production disappeared ([2]; brain homogenates): 3 h
duration of inhibition of heart O2·- production ([2]; heart homogenates): ~ 60 minutes
start of inhibition of heart O2·- production ([2]; heart homogenates): 1 min
time at which inhibition of heart O2·- production became significant ([2]; heart homogenates): 2.5 min
time at which inhibition of heart O2·- production disappeared ([2]; heart homogenates): 3 h
duration of inhibition of liver O2·- production ([2]; liver homogenates): ~ 60 minutes
time at which inhibition of liver O2·- production disappeared ([2]; liver homogenates): 3 h
onset of inhibition of liver O2·- production ([2]; liver homogenates, vs time 0 control): ≤ 1 min
effect on DHE fluorescence (in situ ROS production) [3]: inhibited effectively
pKa value [4]: 8.17
